According to US20110152166A1, “METHOD OF MODULATION OF PROTEIN PHOSPHORYLATION-DEPENDENT CONFORMATIONAL TRANSITIONS WITH LOW MOLECULAR WEIGHT COMPOUNDS” (priority 2006, published 2011):
Ends that are not written are not given here.

How the values were obtained:
GST-S6K11-365 = assay: Surface plasmon resonance, S6K1 binding to tail peptides; design: species or system rat; conditions: K144N versus wt
Description: FIG. 13. The tail phosphate synergistically enhances the ability of the HM phosphate to activate S6K, dependent on the tail phosphate-binding site. (A) The kinase activity of purified kinase domain of S6K1 (S6K11-364), pre-phosphorylated by PDK1 in the activation loop, was determined in the presence of increasing concentrations of synthetic S6K1 tail peptide (residues 366-395) that was either non-phosphorylated (S371/T389), phosphorylated at Ser371 (pS371/T389) or Thr389 (5371/pT389) or phosphorylated at both sites (pS371/pT389). (B) The kinase activity of S6K11-364 and S6K11-364K144N, either pre-phosphorylated or not by PDK1, was determined in the absence or presence of 90 μM S371/pT389 or pS371/pT389. (C) pS371/pT389 S6K1 tail peptide was biotinylated and used to coat streptavidin Sensor Chips. The chips were thereafter analyzed for binding to purified GST-S6K11-365 or GST-56K11-365K144N. (A-C) Experiments were repeated at least 3 times and activity data (expressed as percent) are means±SD.
Sixty 146 cm^2 dishes with COST cells were co-transfected with pEBG-2T-S6K1-365 and pCMV5-myc-PDK1 (ratio 3:1) using calcium phosphate precipitation or with pEBG-2T-PKCζ and pCMV5-myc-PDK1 (ratio 3:1) using Fugene HD according to the manufacturers Instructions. Two days after transfection, the cells were harvested in lysis buffer as described above. […]

GST-PDK1 [Phe157Leu] = target: T1, GST-PDK1 [Phe157Leu] (Homo sapiens, UniProt O15530, F157L); assay: PDK1 activity assay with T308tide; format: biochemical
T1 construct: different protein constructs, comprising the full length protein or the catalytic domain alone; made in house; host or cells: HEK293 cells (pEBG-2T-PDK1 mutant)
T1 sequence (O15530 whole entry F157L, the tested form may be a part): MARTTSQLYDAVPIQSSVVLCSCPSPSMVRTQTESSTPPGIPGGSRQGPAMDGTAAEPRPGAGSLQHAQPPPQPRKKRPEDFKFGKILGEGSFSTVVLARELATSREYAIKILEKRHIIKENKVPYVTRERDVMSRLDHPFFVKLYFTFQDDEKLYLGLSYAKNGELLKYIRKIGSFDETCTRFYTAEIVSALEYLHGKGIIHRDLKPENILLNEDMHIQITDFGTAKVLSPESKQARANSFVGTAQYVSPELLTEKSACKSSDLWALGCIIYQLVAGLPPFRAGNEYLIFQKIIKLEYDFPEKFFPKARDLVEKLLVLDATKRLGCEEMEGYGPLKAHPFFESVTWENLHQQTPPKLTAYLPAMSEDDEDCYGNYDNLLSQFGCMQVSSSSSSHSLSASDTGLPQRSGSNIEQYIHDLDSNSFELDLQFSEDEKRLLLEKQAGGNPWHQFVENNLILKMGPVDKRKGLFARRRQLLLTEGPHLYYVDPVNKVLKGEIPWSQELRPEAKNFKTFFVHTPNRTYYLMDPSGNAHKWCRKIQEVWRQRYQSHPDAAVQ

## S371/pT389: synthetic S6K1 tail peptide (residues 366-395) phosphorylated in the HM
GST-S6K11-365
  decrease of binding of S6K11-365 to peptide by the K144N mutation: no effect

## REPRILSEEEQEMFRDFDYIADWC [PIFtide, reference compound]
GST-PDK1 [Phe157Leu]
  AC50: 320 ± 190 nM
  Max. activity: 1.4 ± 0.14 U/mg
